Laboratory results published in patent US4409221A, “1,2,3,4,4a,9b-Hexahydro-4a-piperazinylmethyl-4-dibenzofuranone or -dibenzofuranol derivatives” (Riom Laboratories - Cerm S.A., priority 1981, dated 1983).
Where a name gives a salt, the structure may show the parent alone.

Legend:
[1] = acute toxicity rating (LD50) by oral administration in mice; settings: mouse, in vivo
Description: (§1) The activity of the product under study is evaluated by comparing the amplitudes of the bronchospasms before and after treatment and calculating the percentage change. The duration of action of the compounds under study has also been observed. (Table I). This table also contains an acute toxicity rating (LD50) determined by oral administration in mice.

[2] = tested on: histamine type bronchospasms; test: anti-bronchoconstrictor activity in guineapigs, KONZETT and ROSSLER technique, histamine-induced bronchospasm; type: in vivo; settings: histamine 5 μg/kg^-1 i.v.; for inhibition at 5 mg/kg / inhibition at 1 mg/kg: iv, anaesthetised guineapigs, read-out: Percentage Inhibition
Description: (§2) The anti-bronchoconstrictor activity of the compounds of the invention is evaluated in guineapigs by the KONZETT and ROSSLER technique.
(§3) After being anaesthetised with ethyl carbamate and submitted to tracheotomy, the animals are given artificial breathing at constant volume and the intertracheal pressure is recorded, which makes an indirect measurement of the total pulmonary resistance possible. Histamine (5 μg/kg^-1 i.v.) is administered before, and at different time intervals after, intravenous administration of the compounds of the invention.
as §1

[3] = tested on: serotoninergic bronchospasms; test: bronchospasm experiment repeated replacing histamine with serotonin; type: in vivo, guineapigs; settings: iv, 1 h; compound 5 mg/kg^-1 intravenously; serotonin 20 μg/kg^-1 I.V.; observed during 60 minutes
Description: as §2, §3, §1
In addition, the bronchosparm experiment was repeated, but replacing histamine with serotonine, (20 μg/kg^-1, I.V.).

CCOC(CN1CCN(CC23Oc4ccc(F)cc4C2CCCC3O)CC1)c1ccccc1 (centres unmarked) [Compound 2, 1,2,3,4,4a,9b-hexahydro-4a-(1-[4-(2-ethoxy-2-phenyl)ethyl]piperazinyl)methyl-8-fluoro-4-dibenzofuranol, 2 HCl]
LD50 [1]: 900 mg/kg | Duration (duration of action) ([2]; compound 5 mg/kg^-1 I.V.): > 60 min | inhibition at 5 mg/kg ([2]; compound 5 mg/kg^-1 I.V.): 95 ± 3.1%

CCOC(CN1CCN(CC23Oc4ccc(OC)cc4C2CCCC3O)CC1)c1ccccc1 (centres unmarked) [Compound 6]
LD50 [1]: 900 mg/kg | Duration (duration of action) ([2]; compound 5 mg/kg^-1 I.V.): > 45 min | inhibition at 5 mg/kg ([2]; compound 5 mg/kg^-1 I.V.): 48.2 ± 9.2%

CCOC(CN1CCN(CC23Oc4ccccc4C2CCCC3O)CC1)c1ccccc1 (centres unmarked) [Compound 1, 1,2,3,4,4a,9b-hexahydro-4a-(1-[4-(2-ethoxy-2-phenyl)ethyl]piperazinyl)methyl-4-dibenzofuranol]
inhibition at 5 mg/kg [3]: 87.6% | Duration (duration of action) ([2]; compound 1 mg/kg^-1 I.V.): > 60 min | Duration (duration of action) ([2]; compound 5 mg/kg^-1 I.V.): > 60 min | inhibition at 1 mg/kg ([2]; compound 1 mg/kg^-1 I.V.): 87.7 ± 6.6% | inhibition at 5 mg/kg ([2]; compound 5 mg/kg^-1 I.V.): 100%

CCOC(CN1CCN(CC23Oc4ccccc4C2CCCC3=O)CC1)c1ccccc1 (centres unmarked) [Compound 5, 1,2,3,4,4a,9b-hexahydro-4a-(1-[4-(2-ethoxy-2-phenyl)ethyl]piperazinyl)methyl-4-dibenzofuranone]
LD50 [1]: 900 mg/kg | Duration (duration of action) ([2]; compound 5 mg/kg^-1 I.V.): > 45 min | inhibition at 5 mg/kg ([2]; compound 5 mg/kg^-1 I.V.): 80.2 ± 9.9%

CCOC(CN1CCN(CC23Oc4c(OC)cccc4C2CCCC3=O)CC1)c1ccccc1 (centres unmarked) [Compound 3]
LD50 [1]: 320 mg/kg | Duration (duration of action) ([2]; compound 5 mg/kg^-1 I.V.): > 45 min | inhibition at 5 mg/kg ([2]; compound 5 mg/kg^-1 I.V.): 97.5 ± 2.5%

COC(CN1CCN(CC23Oc4ccccc4C2CCCC3O)CC1)c1ccccc1 (centres unmarked) [Compound 8]
LD50 [1]: 480 mg/kg | Duration (duration of action) ([2]; compound 1 mg/kg^-1 I.V.): > 60 min | inhibition at 1 mg/kg ([2]; compound 1 mg/kg^-1 I.V.): 95.5 ± 4.6%
